Experimental data reported in the supplement of paper PMC13207355.

Columns and labels:
Details in all cases: exposure time: 72 h
[1] = tested on: E28 (patient-derived glioblastoma stem cells of classical subtype); assay: surviving fraction (nuclei count normalised to DMSO); higher = more cells surviving (less toxic)
[2] = tested on: E31 (patient-derived glioblastoma stem cells of proneural subtype); assay: as above
[3] = tested on: E13 (patient-derived glioblastoma stem cells of classical subtype); assay: as above
[4] = tested on: E21 (patient-derived glioblastoma stem cells of mesenchymal subtype); assay: as above
[5] = tested on: FT3469 (normal neural stem cell line); assay: as above
[6] = tested on: E57 (patient-derived glioblastoma stem cells of mesenchymal subtype); assay: as above
[7] = tested on: E34 (patient-derived glioblastoma stem cells of proneural subtype); assay: as above
[8] = tested on: E28; assay: phenotypic distance (Euclidean, principal components) from DMSO controls (arbitrary units); higher = stronger morphological change
[9] = tested on: E31; assay: as above
[10] = tested on: E13; assay: as above
[11] = tested on: E21; assay: as above
[12] = tested on: FT3469; assay: as above
[13] = tested on: E57; assay: as above
[14] = tested on: E34; assay: as above
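For phenotypic distance (Euclidean, principal components) from DMSO controls in this document: cell Painting imaging in 384-well plates, CellProfiler features reduced to at least 20 principal components, Euclidean distance versus same-plate DMSO vehicle wells (0.1% v/v), median over six images per well.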
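For surviving fraction (nuclei count normalised to DMSO) in this document: nuclei counted by high-content imaging of Hoechst-stained cells in laminin-coated 384-well plates, relative to 0.1% DMSO vehicle wells, with staurosporine as cell-death control.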

O=C1c2c(O)ccc(O)c2C(=O)c2c(NCCNCCO)ccc(NCCNCCO)c21 [Mitoxantrone]
Details	phenotypic distance	surviving fraction
[1], 4.1 nM	–	0.476
[1], 12.3 nM	–	0.359
[1], 37 nM	–	0.358
[1], 111.1 nM	–	0.262
[1], 333.3 nM	–	0.313
[1], 1000 nM	–	0.286
[1], 3000 nM	–	0.264
[2], 4.1 nM	–	0.243
[2], 12.3 nM	–	0.219
[2], 37 nM	–	0.311
[2], 111.1 nM	–	0.216
[2], 333.3 nM	–	0.218
[2], 1000 nM	–	0.127
[2], 3000 nM	–	0.142
[3], 4.1 nM	–	0.526
[3], 12.3 nM	–	0.451
[3], 37 nM	–	0.422
[3], 111.1 nM	–	0.338
[3], 333.3 nM	–	0.279
[3], 1000 nM	–	0.23
[3], 3000 nM	–	0.219
[4], 4.1 nM	–	0.689
[4], 12.3 nM	–	0.608
[4], 37 nM	–	0.448
[4], 111.1 nM	–	0.229
[4], 333.3 nM	–	0.207
[4], 1000 nM	–	0.209
[4], 3000 nM	–	0.189
[5], 4.1 nM	–	0.595
[5], 12.3 nM	–	0.645
[5], 37 nM	–	0.657
[5], 111.1 nM	–	0.604
[5], 333.3 nM	–	0.639
[5], 1000 nM	–	0.604
[5], 3000 nM	–	0.362
[6], 4.1 nM	–	0.245
[6], 12.3 nM	–	0.2
[6], 37 nM	–	0.174
[6], 111.1 nM	–	0.165
[6], 333.3 nM	–	0.161
[6], 1000 nM	–	0.159
[6], 3000 nM	–	0.17
[7], 4.1 nM	–	0.578
[7], 12.3 nM	–	0.494
[7], 37 nM	–	0.578
[7], 111.1 nM	–	0.615
[7], 333.3 nM	–	0.547
[7], 1000 nM	–	0.564
[7], 3000 nM	–	0.56
[8], 4.1 nM	3.3	–
[8], 12.3 nM	3.24	–
[8], 37 nM	3.23	–
[8], 111.1 nM	3.7	–
[8], 333.3 nM	3.72	–
[8], 1000 nM	3.17	–
[8], 3000 nM	2.86	–
[9], 4.1 nM	2.71	–
[9], 12.3 nM	3.14	–
[9], 37 nM	2.43	–
[9], 111.1 nM	2.42	–
[9], 333.3 nM	2.72	–
[9], 1000 nM	4.39	–
[9], 3000 nM	4.07	–
[10], 4.1 nM	4.74	–
[10], 12.3 nM	5.62	–
[10], 37 nM	6.07	–
[10], 111.1 nM	6.02	–
[10], 333.3 nM	6.18	–
[10], 1000 nM	6.49	–
[10], 3000 nM	6.08	–
[11], 4.1 nM	2.94	–
[11], 12.3 nM	4.27	–
[11], 37 nM	6.11	–
[11], 111.1 nM	6.48	–
[11], 333.3 nM	6.79	–
[11], 1000 nM	6.1	–
[11], 3000 nM	5.74	–
[12], 4.1 nM	1.61	–
[12], 12.3 nM	1.65	–
[12], 37 nM	1.7	–
[12], 111.1 nM	1.36	–
[12], 333.3 nM	1.3	–
[12], 1000 nM	2.01	–
[12], 3000 nM	3.46	–
[13], 4.1 nM	8.68	–
[13], 12.3 nM	9.84	–
[13], 37 nM	8.24	–
[13], 111.1 nM	6.95	–
[13], 333.3 nM	7.05	–
[13], 1000 nM	7.26	–
[13], 3000 nM	6.66	–
[14], 4.1 nM	4.38	–
[14], 12.3 nM	4.62	–
[14], 37 nM	4.33	–
[14], 111.1 nM	2.84	–
[14], 333.3 nM	2.54	–
[14], 1000 nM	1.99	–
[14], 3000 nM	2.83	–

OCCN1CCN(CCCN2c3ccccc3Sc3ccc(Cl)cc32)CC1 [Perphenazine]
Details	phenotypic distance	surviving fraction
[1], 4.1 nM	–	1.09
[1], 12.3 nM	–	1.12
[1], 37 nM	–	1.07
[1], 111.1 nM	–	1.19
[1], 333.3 nM	–	0.953
[1], 1000 nM	–	1.09
[1], 3000 nM	–	0.848
[2], 4.1 nM	–	0.97
[2], 12.3 nM	–	1.07
[2], 37 nM	–	1.08
[2], 111.1 nM	–	1.14
[2], 333.3 nM	–	1.18
[2], 1000 nM	–	1.24
[2], 3000 nM	–	0.912
[3], 4.1 nM	–	0.93
[3], 12.3 nM	–	0.94
[3], 37 nM	–	0.849
[3], 111.1 nM	–	0.98
[3], 333.3 nM	–	0.964
[3], 1000 nM	–	1.05
[3], 3000 nM	–	0.837
[4], 4.1 nM	–	0.925
[4], 12.3 nM	–	1.06
[4], 37 nM	–	1.03
[4], 111.1 nM	–	1.05
[4], 333.3 nM	–	1.11
[4], 1000 nM	–	0.954
[4], 3000 nM	–	0.73
[5], 4.1 nM	–	1.11
[5], 12.3 nM	–	0.955
[5], 37 nM	–	1.01
[5], 111.1 nM	–	1.04
[5], 333.3 nM	–	0.866
[5], 1000 nM	–	0.938
[5], 3000 nM	–	1.03
[6], 4.1 nM	–	0.964
[6], 12.3 nM	–	0.957
[6], 37 nM	–	1
[6], 111.1 nM	–	1.1
[6], 333.3 nM	–	1.15
[6], 1000 nM	–	1.12
[6], 3000 nM	–	1.13
[7], 4.1 nM	–	0.951
[7], 12.3 nM	–	1.05
[7], 37 nM	–	1.1
[7], 111.1 nM	–	1.05
[7], 333.3 nM	–	0.994
[7], 1000 nM	–	1.19
[7], 3000 nM	–	0.986
[8], 4.1 nM	0.747	–
[8], 12.3 nM	0.879	–
[8], 37 nM	0.787	–
[8], 111.1 nM	0.725	–
[8], 333.3 nM	0.749	–
[8], 1000 nM	0.938	–
[8], 3000 nM	1.93	–
[9], 4.1 nM	1.23	–
[9], 12.3 nM	0.866	–
[9], 37 nM	0.873	–
[9], 111.1 nM	1.86	–
[9], 333.3 nM	1.75	–
[9], 1000 nM	2.15	–
[9], 3000 nM	3.18	–
[10], 4.1 nM	2.64	–
[10], 12.3 nM	2.33	–
[10], 37 nM	3.22	–
[10], 111.1 nM	0.78	–
[10], 333.3 nM	1.14	–
[10], 1000 nM	3.07	–
[10], 3000 nM	3.61	–
[11], 4.1 nM	0.988	–
[11], 12.3 nM	0.761	–
[11], 37 nM	0.693	–
[11], 111.1 nM	1.08	–
[11], 333.3 nM	0.995	–
[11], 1000 nM	0.917	–
[11], 3000 nM	2.66	–
[12], 4.1 nM	0.72	–
[12], 12.3 nM	0.971	–
[12], 37 nM	0.546	–
[12], 111.1 nM	0.602	–
[12], 333.3 nM	0.84	–
[12], 1000 nM	0.79	–
[12], 3000 nM	1.58	–
[13], 4.1 nM	1.04	–
[13], 12.3 nM	0.836	–
[13], 37 nM	0.782	–
[13], 111.1 nM	0.979	–
[13], 333.3 nM	0.789	–
[13], 1000 nM	1.66	–
[13], 3000 nM	2.41	–
[14], 4.1 nM	1.05	–
[14], 12.3 nM	0.866	–
[14], 37 nM	0.902	–
[14], 111.1 nM	2.15	–
[14], 333.3 nM	1.04	–
[14], 1000 nM	1.51	–
[14], 3000 nM	1.42	–
